According to PubChem BioAssay (NCI):
Several values for one entry are separate records, joined by “and”; a condition that tells them apart may be missing. Equal values may be shown once.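 Values below derive from 48-hour exposures of cells grown in 96-well plates, with endpoints linearly interpolated between the two concentrations bracketing the appropriate inhibition level. The concentration for 50% growth inhibition is given as GI50. TGI is the concentration that stops growth completely.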

What was measured:
Experiment in all cases: DTP human tumour cell line panel, 48 h
[1] = test system: CAKI-1 renal
[2] = test system: HL-60(TB) leukemia
[3] = test system: KM12 colon
[4] = test system: NCI-H23 lung
[5] = test system: SF-295 CNS
[6] = test system: UACC-257 melanoma
[7] = test system: COLO 205 colon
[8] = test system: SK-MEL-28 melanoma

SMILES	GI50 [1]	TGI [1]	GI50 [2]	TGI [2]	GI50 [3]	TGI [3]	GI50 [4]	TGI [4]	GI50 [5]	TGI [5]	GI50 [6]	TGI [6]	TGI [7]	TGI [8]	GI50 [7]	GI50 [8]
OCC#CCOCC#Cc1ccccc1C#CCOCC#CCO	82.8 µM	> 100 µM	47.4 µM	> 100 µM	35.1 µM	> 100 µM	36 µM	> 100 µM	> 100 µM	> 100 µM	35.5 µM	> 100 µM	–	–	–	–
Nc1n[n+]([O-])c2cc([N+](=O)[O-])ccc2[n+]1[O-]	–	20.6 µM	–	7.47 µM	–	–	–	35.7 µM	–	22.5 µM	–	27.1 µM	19 µM	> 100 µM	–	–
O=C(COc1ccc(/C=C2\Oc3ccc4ccccc4c3C2=O)cc1)c1ccc([N+](=O)[O-])cc1	18.8 µM	35.4 µM	2.61 µM	16.2 µM	10.9 µM	23.4 µM	12.5 µM	29.4 µM	13.7 µM	36.4 µM	18.9 µM	58.5 µM	33.5 µM	40.2 µM	11.2 µM	19.4 µM
O=CC(OC(=O)c1ccccc1)C(OC(=O)c1ccccc1)C(COC(c1ccccc1)(c1ccccc1)c1ccccc1)OC(=O)c1ccccc1 (centres undefined)	25.1 µM	72.2 µM	3.25 µM	20.7 µM	14.3 µM	31 µM	15.4 µM	34.6 µM	23.8 µM	73.5 µM	13.9 µM	34.4 µM	25.4 µM	28.3 µM	11.8 µM	13.5 µM
O=c1cc(-c2ccc(Cl)cc2)[nH]c2ccccc12	47.3 µM	> 100 µM	5.62 µM	> 100 µM	27.2 µM	> 100 µM	63 µM	> 100 µM	41.2 µM	> 100 µM	> 100 µM	> 100 µM	> 100 µM	> 100 µM	35.1 µM	> 100 µM
OCC1NC(COC2OC(CO)C(O)C(O)C2O)C(O)C(O)C1O (centres undefined)	–	> 100 µM	–	> 100 µM	–	> 100 µM	–	> 100 µM	–	> 100 µM	–	> 100 µM	> 100 µM	> 100 µM	–	–
COc1ccc(-n2cc(-c3cc(OC)c(OC)c(OC)c3)nc2SCc2ccc(Cl)cc2)cc1OC	> 100 µM	> 100 µM	78 µM	> 100 µM	> 100 µM	> 100 µM	> 100 µM	> 100 µM	> 100 µM	> 100 µM	> 100 µM	> 100 µM	> 100 µM	> 100 µM	> 100 µM	> 100 µM
CC1(C)OB(c2ccc(N(CCOS(C)(=O)=O)CCOS(C)(=O)=O)cc2)OC1(C)C	1.79 µM	18.4 µM	2.85 µM	39.3 µM	26.8 µM	> 85 µM	6.88 µM	30.4 µM	12.9 µM	> 55 µM	21.6 µM	> 60.5 µM	> 100 µM	> 83.7 µM	24.1 µM	34 µM
CC(=O)NNc1nc(C)c(C(=O)NNC(=O)C(=O)Nc2ccc(Cl)c([N+](=O)[O-])c2)s1	–	> 100 µM	–	> 100 µM	–	> 100 µM	–	> 100 µM	–	> 100 µM	–	> 100 µM	> 100 µM	> 100 µM	–	–
O=C1Cc2c(-c3ccccc3)cc(-c3ccccc3)nc2-c2ccccc2N1	–	19.9 µM	–	> 100 µM	–	> 100 µM	–	36.6 µM	–	10.7 µM	–	> 100 µM	63.7 µM	83.7 µM	–	–
O=C(O)C1C2C=CC(O2)C1C(=O)NCc1cccnc1 (centres undefined)	–	> 100 µM	–	> 100 µM	–	> 100 µM	–	> 100 µM	–	> 100 µM	–	> 100 µM	> 100 µM	> 100 µM	–	–
Cc1ccc2c(c1)[n+](=O)c(C(=O)c1cccs1)c(C(F)(F)F)n2[O-]	0.856 µM and 0.395 µM	3.43 µM and 4.07 µM	1.5 µM and 0.713 µM	33.7 µM and 57.3 µM	0.849 µM and 1.4 µM	3.79 µM and 16.3 µM	0.854 µM	2.59 µM	0.786 µM and 0.842 µM	2.46 µM and 5.87 µM	2.28 µM and 0.237 µM	–	7.68 µM and 10.9 µM	50 µM and 22.6 µM	1.47 µM and 0.842 µM	5.31 µM and 2.91 µM
COc1ccccc1-n1cnc(N)c1C(=O)c1cc(OC)c(OC)c(OC)c1	3.12 µM	> 100 µM	3.12 µM	> 100 µM	3.22 µM	> 100 µM	9.5 µM	> 100 µM	2.73 µM	> 100 µM	–	–	40.3 µM	> 100 µM	4.5 µM	9.62 µM
COc1ccc(-c2nn(-c3cccc(Cl)c3)cc2/C=C2\NC(=S)N(c3ccc(Cl)cc3)C2=O)cc1	4.79 µM	13.2 µM	8.61 µM	> 25 µM	10.1 µM	> 25 µM	3.78 µM	9.23 µM	4.63 µM	12 µM	3.95 µM	8.55 µM	11 µM	7.97 µM	5.59 µM	4.1 µM
N#Cc1ncc(C(Cl)Cl)nc1Cl	–	2.89 µM	–	> 3.75 µM	–	2.7 µM	–	5.94 µM	–	> 10 µM	–	2.99 µM	3.3 µM	4.2 µM	–	–
Cc1nnc(C[C@@H]2C=C(c3ccc(Cl)cc3)c3ccccc3-n3c(C)nnc32)o1	0.133 µM	93.7 µM	0.25 µM	35.5 µM	6.25 µM	> 100 µM	1.51 µM	96.9 µM	1.71 µM	43 µM	2.43 µM	> 100 µM	24.1 µM	> 100 µM	0.296 µM	2.24 µM
C[C@@H]1CC[C@H]2[C@@H](C)C(O)O[C@@H]3O[C@]4(C)CC[C@@H]1[C@]32OO4 (some centres undefined)	0.758 µM	> 47.2 µM	0.176 µM	0.517 µM	0.213 µM	8.78 µM	0.442 µM	10.7 µM	0.625 µM	35.4 µM	0.748 µM	> 100 µM	3 µM	> 74.5 µM	0.718 µM	3.23 µM

SMILES	GI50 [1]	TGI [1]	GI50 [2]	TGI [2]	GI50 [3]	TGI [3]	GI50 [4]	TGI [4]	GI50 [5]	TGI [5]	GI50 [6]	TGI [6]	TGI [7]	TGI [8]	GI50 [7]	GI50 [8]
CCOC(=O)C1(CC(=O)O)CCCC1=O (centres undefined)	–	> 100 µM	–	> 100 µM	–	> 100 µM	–	> 100 µM	–	> 100 µM	–	> 100 µM	> 100 µM	> 100 µM	–	–
Cc1nc2ccccn2c1NC(=O)NN1C(=O)CSC1c1ccc(Cl)cc1 (centres undefined)	> 100 µM	> 100 µM	> 100 µM	> 100 µM	> 100 µM	> 100 µM	–	–	> 100 µM	> 100 µM	> 100 µM	> 100 µM	> 100 µM	> 100 µM	> 100 µM	> 100 µM
O=C(Nc1ccc(OS(=O)(=O)c2ccc(F)cc2)cc1)C12CC3CC(CC(C3)C1)C2	29.4 µM	> 100 µM	> 29 µM	> 100 µM	1.15 µM	> 100 µM	10.1 µM	> 100 µM	1.57 µM	29.1 µM	11 µM	> 100 µM	> 100 µM	> 100 µM	0.434 µM	28.1 µM
CCn1cnc(C[C@H](NC(=O)[C@H](CCCCNC(=O)Nc2cc(C(F)(F)F)cc(C(F)(F)F)c2)NC(=O)Nc2cc(C(F)(F)F)cc(C(F)(F)F)c2)C(=O)OC)c1	> 10 µM	> 10 µM	–	–	4.41 µM	> 10 µM	5.98 µM	> 10 µM	> 10 µM	> 10 µM	> 10 µM	> 10 µM	> 10 µM	> 10 µM	> 10 µM	6.62 µM
N#C/C(=C\c1ccc(O)c(O)c1)C(=O)NCc1ccc(C(F)(F)F)cc1	–	1.81 µM	11.6 µM	> 66.5 µM	6.08 µM	26.9 µM	4.54 µM	18.5 µM	3.39 µM	11.8 µM	17.9 µM	> 68.6 µM	43.3 µM	57 µM	12.1 µM	16.9 µM
C[C@@H](C1CC[C@H]2[C@@H]3[C@@H]4O[C@@H]4[C@@]4(O)CC=CC(=O)[C@]4(C)[C@H]3C[C@H](O)[C@]12C)[C@H]1C[C@]2(C)O[C@]2(C)C(=O)O1 (some centres undefined)	–	> 100 µM	–	> 100 µM	–	> 100 µM	–	> 100 µM	–	> 100 µM	–	> 100 µM	> 100 µM	> 100 µM	–	–
Cc1cc2c(cc1Cl)SC(N(c1ccccc1Cl)S(=O)(=O)c1ccc(Br)s1)=NS2(=O)=O	19.4 µM	48.4 µM	16.4 µM	41.9 µM	25.8 µM	83.4 µM	19.9 µM	56.4 µM	30.7 µM	> 100 µM	–	–	28 µM	29.6 µM	12.2 µM	15.2 µM
COc1ccc2[nH]c(Cl)c(/C=C3/C(=O)Nc4ccccc43)c2c1	0.673 µM	1.75 µM	0.449 µM	2.84 µM	0.563 µM	3.09 µM	0.219 µM	0.688 µM	0.574 µM	1.28 µM	0.984 µM	11.2 µM	3.25 µM	5.47 µM	0.427 µM	0.459 µM
Cc1cc(F)c(C(=O)Nc2cccc(-c3nncn3C(C)C)n2)cc1-n1cnc(C2CC2)c1	10.5 µM	> 100 µM	16.2 µM	45.3 µM	20.7 µM	95.6 µM	12 µM	46.6 µM	13.3 µM	80.9 µM	32.8 µM	85.7 µM	21.3 µM	64.7 µM	4.2 µM	20.9 µM
O=C(NC1CCN(Cc2ccccc2)CC1)c1cc(-c2cccnc2)nc2ccc(Cl)cc12	3.24 µM	19.1 µM	8.27 µM	45.2 µM	13.7 µM	> 100 µM	18 µM	> 100 µM	10.6 µM	26 µM	> 100 µM	> 100 µM	> 100 µM	> 100 µM	5.28 µM	16.3 µM
CC(C)C[C@H](CC(=O)O)C(=O)N[C@@H](Cc1c[nH]c2ccccc12)C(=O)N[C@@H](C)c1ccccc1	> 25 µM	> 25 µM	–	–	> 25 µM	> 25 µM	> 25 µM	> 25 µM	> 25 µM	> 25 µM	> 25 µM	> 25 µM	> 25 µM	> 25 µM	> 25 µM	> 25 µM
CC(=O)N[C@H](C)[C@@H](O)[C@@H](C)[C@@H]1OC(=O)/C=C/C=C(C)\C=C\[C@]2(C)C[C@@H](NS(C)(=O)=O)C=C[C@@H]2/C=C(C)/C=C/[C@H]1C	–	–	0.00579 µM and 0.0124 µM	> 43.5 µM	0.125 µM and 0.0277 µM	> 43.5 µM	0.0493 µM	> 43.5 µM	0.00244 µM and 0.00435 µM	–	0.0227 µM and 0.00967 µM	> 43.5 µM	> 43.5 µM	> 43.5 µM	0.00692 µM and 0.0199 µM	0.008 µM and 0.0222 µM
Cc1cc(S(=O)(=O)/N=C(\N)Nc2cccc(O)c2)c(SCc2ccccc2)cc1Cl	16 µM	34.2 µM	12.9 µM	62.9 µM	15.6 µM	54.4 µM	–	–	16.7 µM	51.2 µM	17.7 µM	35.1 µM	> 100 µM	31 µM	28.8 µM	14.1 µM
C=C1CCC2CC1C(C(=O)c1c[nH]c3ccccc13)=NC2(C)C (centres undefined)	–	> 100 µM	–	> 100 µM	–	> 100 µM	–	> 100 µM	–	–	–	> 100 µM	> 100 µM	> 100 µM	–	–
CN1CCN(CCCOc2cccc3nc(Nc4cc(Cl)cc(Cl)c4)ccc23)CC1	2.97 µM	11.7 µM	–	–	1.72 µM	3.29 µM	1.72 µM	3.32 µM	1.72 µM	3.32 µM	1.97 µM	3.54 µM	3.13 µM	3.13 µM	1.63 µM	1.67 µM
Clc1ccc(-c2cc(-c3ccccc3)nc(N3CCN(CCCNc4ccnc5cc(Cl)ccc45)CC3)n2)cc1	1.66 µM	3.13 µM	1 µM	2.83 µM	1.68 µM	3.2 µM	–	–	1.86 µM	3.72 µM	1.93 µM	3.89 µM	3.7 µM	3.14 µM	1.87 µM	1.72 µM
